Results taken from patent US9597326B2 (priority 2010, dated 2017).

Columns and labels:
human TLR7 = human TLR7 (Homo sapiens (Human), UniProt Q9NYK1); type: cell-based; settings: HEK293 reporter; relative to resiquimod set to 100%
[1] = tested on: cytokines (IFN-γ, IL-10, IL-12 p40, IL-1β, IL-5, IL-6, MCP-1, KC, TNF-α); type: in vivo, mice; settings: IP; peak concentration over 24 h; FIG. 6

human TLR7, sequence (Q9NYK1 27-1049 limits assumed): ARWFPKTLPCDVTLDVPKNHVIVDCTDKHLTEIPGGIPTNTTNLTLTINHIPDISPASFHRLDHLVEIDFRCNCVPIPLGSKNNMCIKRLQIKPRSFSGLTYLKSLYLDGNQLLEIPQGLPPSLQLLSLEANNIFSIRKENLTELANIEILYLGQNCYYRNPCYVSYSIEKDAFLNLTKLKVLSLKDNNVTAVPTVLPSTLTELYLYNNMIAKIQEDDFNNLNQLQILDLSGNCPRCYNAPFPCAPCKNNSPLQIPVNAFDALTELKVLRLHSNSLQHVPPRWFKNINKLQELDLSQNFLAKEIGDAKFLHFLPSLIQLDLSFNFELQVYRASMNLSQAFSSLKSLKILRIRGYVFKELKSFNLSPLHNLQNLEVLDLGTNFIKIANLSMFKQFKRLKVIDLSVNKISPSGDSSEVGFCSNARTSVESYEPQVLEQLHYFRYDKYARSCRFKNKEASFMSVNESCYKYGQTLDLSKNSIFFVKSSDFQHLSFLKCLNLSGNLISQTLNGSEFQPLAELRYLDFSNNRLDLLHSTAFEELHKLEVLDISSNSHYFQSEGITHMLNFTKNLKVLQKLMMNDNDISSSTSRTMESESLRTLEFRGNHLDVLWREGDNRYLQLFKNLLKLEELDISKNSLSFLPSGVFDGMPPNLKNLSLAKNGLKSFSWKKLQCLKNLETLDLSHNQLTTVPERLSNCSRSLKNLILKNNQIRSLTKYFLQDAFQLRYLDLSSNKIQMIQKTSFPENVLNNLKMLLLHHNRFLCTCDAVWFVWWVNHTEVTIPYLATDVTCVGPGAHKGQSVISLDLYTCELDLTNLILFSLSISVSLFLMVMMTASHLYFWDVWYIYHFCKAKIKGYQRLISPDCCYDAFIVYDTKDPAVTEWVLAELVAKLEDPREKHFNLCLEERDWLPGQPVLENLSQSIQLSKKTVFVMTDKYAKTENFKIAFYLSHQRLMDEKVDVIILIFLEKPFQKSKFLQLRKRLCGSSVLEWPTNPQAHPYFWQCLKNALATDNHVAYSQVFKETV

SMILES | EC50 (human TLR7) [nM] | cytokine induction of IL-5 compared to peanut oil-control [1] | cytokines induced compared to peanut oil-control [1] | cytokine induction of IL-1β compared to R-848 [1]
COc1ccc(CCc2cnc3c(N)nc4cc(C(C)(P(=O)(O)O)P(=O)(O)O)ccc4c3c2)c(C)c1 [Compound 19] | 23800 | – | – | –
CCOCc1nc2c(N)nc3ccccc3c2n1CC(C)(C)O [R-848, resiquimod, reference compound] | – | Neither administration of SMIP 28 nor R-848, compared to peanut oil-control, resulted in a cytokine induction of IL-5 | cytokine induction of IFN-γ, IL-10, IL-12 p40, IL-6, MCP-1, mKC, and TNF-α | –
COc1ccc(CCc2cnc3c(N)nc4cc(C)ccc4c3c2)c(C)c1 [SMIP 28, 2-(4-methoxy-2-methylphenethyl)-8-methylbenzo[f][1,7]naphthyridin-5-amine] | – | Neither administration of SMIP 28 nor R-848, compared to peanut oil-control, resulted in a cytokine induction of IL-5 | cytokine induction of IFN-γ, IL-12 p40, IL-1β, IL-6, MCP-1, mKC, and TNF-α | significantly greater cytokine induction of IL-1β
